The experiment concerns herpes hominis type 2. Description: Anti-Herpes Activity (Plaque Assay). The class given is cell-based. As to conditions: concentrations less than 100 μg/ml. From the text:
The infection of tissue culture cells by Herpes virus causes cell lysis. After a period of time these lysed cells are visualized as a tiny clear area (plaque) on a layer of cells. The incorporation of a test substance into the media will reduce the number of plaques if it is capable of preventing virus replication. The method is as follows:
There was employed herpes hominis type 2 purchased from American Type Culture Collection (ATCC), Bethesda, Md., ATCC #VR 540, Lot 3D. The lyophilized viral suspension was reconstituted with 1 ml sterile distilled H2 O. The virus was passed twice through HeLa-cell monolayers. The tissue-culture supernates were pooled, dispensed in 1-ml aliquots, and stored at -70° C.
Vero cells in log-growth phase were subcultured at a concentration of 1×10^5 cells/ml in 50-ml Falcon flasks in Eagle's Minimum Essential Medium (MEM), supplemented with 10% fetal calf serum (FCS) and antibiotics. Media were changed the day following planting. […]
Agarose was prepared at a concentration of 6% w/v in 50 ml PBS. […] In addition, a 1:10 dilution of pooled human anti-herpes sera was readied. […]
Plaques were counted either directly by transmitted fluorescent light and macroviewing, or by the use of light microscopy for microplaques. Microplaques were counted by averaging three fields per experimental group under 150× magnification.

Regarding `CCCCCC[C@H]([C@H](C)O)n1cnc2c(=O)[nH]cnc21` (relative stereo) [NPT 15392, Erythro-9-(2-Hydroxy-3-Nonyl)Hypoxanthine], the “reduction of plaque formation caused by Herpes Simplex virus” value is given as more than 90%.

(Values after patent US4221909A, “P-Acetamidobenzoic acid salts of 9-(hydroxyalkyl) purines” (Sloan-Kettering Institute for Cancer Research, priority 1978, dated 1980).)
